Laboratory results reported in patent US9205141B2, “Immunomodulatory methods and systems for treatment and/or prevention of hypertension” (Cardio Vax, LLC, priority 2010, dated 2015).

Experiments:
[1] = system: BMDCs; assay: Endocytosis of FITC-labeled p210 by DCs in vitro; assay type: cell-based, mice; details: FITC fluorescence in BMDCs
Excerpt: Peptide loading on BMDCs was defined using p210 labeled with FITC (FITC conjugating kit from Pierce).

[2] = system: AngII-infused male apoE KO mice; assay: Blood pressure and heart rate in angiotensin II-infused apoE KO mice after P210 immunization; assay type: in vivo; details: apoE KO mice immunized s.c. 100 μg at 7, 10, 12 weeks; AngII 1000 ng/Kg/min; 4 weeks after pump implantation
Protocol: Saline was delivered to the control group.
Angiotensin II infusion via implanted osmotic pump was started at 10 weeks of age. Mice were euthanized at 14 weeks of age. Blood pressure was measured throughout the duration of experiment.

[3] = system: naïve male apoE (−/−) recipient mice; assay: Adoptive transfer of cells from immunized donors to naive apoE (−/−) recipients; assay type: in vivo
Excerpt: Adoptive transfer experiment Male apoE (−/−) mice on regular chow received subcutaneous immunization as described in previous paragraph and were sacrificed at 13 weeks of age as donors. Splenocytes from the same treatment group were pooled before cell isolation. Donor CD8(+) T-cells, CD4(+)CD25(+) T-cells or B-cells were isolated using Dynabeads FlowComp (Invitrogen) according to the manufacturer's protocols. CD4(+) T-cells were negatively selected from the splenocytes followed by positive selection of CD4(+)CD25(+) cells. B cells were negatively isolated whereas CD8(+) T-cells were positively isolated first and released from beads. The purity of pooled CD8(+) T-cells, CD4(+)CD25(+) T-cells and B-cells was 90%, 80% and 70%, respectively. The isolated CD8(+) T-cells (1×10^6 cells/mouse), CD4(+)CD25(+) T-cells (1×10^5 or 3×10^5 cells/mouse) or B-cells (2×10^7 cells/mouse) were then adoptively transferred to naïve male apoE (−/−) recipient mice at 6-7 weeks of age via tail vein injection. In the published literatures of vascular biology, the number of adoptively transferred lymphocytes varied greatly. For B-cells transfer, the number of 2×10^7 cells/mouse was chosen based on two prior reports. (11),(12) For CD4(+)CD25(+) T-cells transfer, the number of cells transferred ranged from 5×10^4 cells/mouse to 1×10^6 cells/mouse in the published literature. […]

[4] = system: bone marrow derived DCs; assay: Cytolytic activity of CD8(+) T cells from immunized mice against dendritic cells in vitro; assay type: cell-based
Protocol: In Vitro Generation of BM-Derived dendritic cells (BMDCs) The method for generating BMDC with GM-CSF was adapted from previous publication with modification. (19) Briefly, bone marrow cells from femurs and tibiae of male apoE−/− mice were plated into 10 cm culture plates (Falcon) with 20 ml complete RPMI-1640 containing 10 ng/ml GM-CSF (R&D Systems) and 10 ng/ml IL-4 (Invitrogen). Cells were washed and fed on day 3 and day 5 by removing the old medium followed by replenishing with fresh culture medium with GM-CSF and IL-4. On day 8, the immature DC appeared as non-adherent cells under the microscope and harvested by vigorous pipetting and subcultured into new culture plates with 2×10^5 DCs in 1.5 ml medium.
CD8(+) T-cells were negatively isolated using a CD8 selection Dynabeads kit (Invitrogen) per manufacturer's protocol. The selected CD8(+) T-cells were then co-culture with DCs in a CD8:DC ratio of 3:1. A series of pilot studies has been performed to determine the optimal CD8:DC ratio for this assay. After co-culture for 4 hours, cells were collected and processed for flow cytometric determination of CD11c and 7-AAD by LSR II flow cytometer (BD Biosciences) and data was analyzed with Summit V4.3 software. Dendritic cell death without CD8(+) T-cells in the co-culture was used as baseline and percentage of specific lysis of cells was calculated using a method described previously. (20)
One week after the third immunization, mice were euthanized to collect spleen CD8^+ T cells. Bone-marrow derived DCs were differentiated from naïve apoE−/− mice and used as target cells. […]
Applicants therefore assessed the effect of the vaccine on cytotoxic activity of CD8^+ T cells against syngeneic bone marrow-derived DCs. […] Cells were collected and processed for flow cytometric determination of CD11c^+ and 7-AAD 4 hours later.^20 Dendritic cell death without CD8^+ T cells in the co-culture was used as baseline and percentage of specific lysis of cells was calculated using a method described previously.^20

[5] = system: CD8+CD25− T cells co-cultured with DCs; assay: Presentation of p210 by DCs to CD8+CD25− T cells in co-culture; assay type: cell-based; details: 48 hours, DCs treated with LPS, compared to untreated or LPS only treated co-cultures
Excerpt: The p210 peptide contains the proteoglycan binding site of the apoB-100 molecule. This peptide is a cell-penetrating peptide capable of efficiently delivering antigens for cross-presentation to cytotoxic CD8^+ T cells.^53 Applicants therefore assessed activation of CD8^+CD25^− T cells co-cultured with DCs loaded with p210 and matured with LPS.

[6] = system: male apoE (−/−) mice; assay: Athero-protective effect of p210 immunization in apoE (−/−) mice on high cholesterol chow; assay type: in vivo; details: 100 μg dose compared to 25 or 50 μg dose
Excerpt: Selection of peptides and their preparation for immunization The establishment and screening of human apoB-100 peptides has been reported (8). Based on Applicants pilot experiments and prior reports, (9),(10) Applicants selected peptide 210 (p210, KTTKQ SFDLS VKAQY KKNKH—SEQ ID NO: 210) as a candidate immunogen. Native p210 peptide (Euro-Diagnostica AB, Sweden) was conjugated to cationic bovine serum albumin (cBSA) as carrier using a method described previously. (3),(4) Alum was used as adjuvant and mixed with peptide/cBSA conjugate with 1:1 ratio in volume. Peptide conjugation and mixing with alum were prepared fresh prior to each immunization.
Immunization protocols Male apoE (−/−) mice (Jackson Laboratories) were housed in an animal facility accredited by the American Association of Accreditation of Laboratory Animal Care and kept on a 12-hour day/night cycle with unrestricted access to water and food. The Institutional Animal Care and Use Committee of Cedars-Sinai Medical Center approved the experimental protocols. […] Mice, maintained on normal chow diet, received subcutaneous primary immunization in the dorsal area between scapulas at 6-7 weeks of age, followed by a booster at 9 and 12 weeks of age. One week after last booster, diet was switched to high cholesterol chow (TD 88137, Harlan-Teklad) and continued until euthanasia at the age of 25 weeks. […]

[7] = CD8(+) T-cells from immunized mice vs PBS or cBSA/alum

Substance: KTTKQ SFDLS VKAQY KKNKH (KTTKQSFDLSVKAQYKKNKH) [p210, amino acids 3136-3155 of human apoB-100]
- uptake of FITC-labeled p210 by dendritic cells [1]: endocytosed by DCs
- reduction in blood pressure [2]: about 11%
- lesion size in recipients of CD4(+)CD25(+) T-cells ([3]; 1×10^5 cells/mouse): no difference in lesion size
- lesion size in recipients of CD4(+)CD25(+) T-cells ([3]; 3×10^5 cells/mouse): did not reduce lesion sizes
- granzyme B expression of CD8(+) T-cells [4, 7]: increased granzyme B expression
- perforin level of CD8(+) T-cells [4, 7]: no difference in perforin level
- cytolytic activity after depletion of CD25+ cells ([4]; CD8+ T cells depleted of CD25+ cells): abrogated the increased cytolytic activity
- activated CD8+CD25+ T cells after co-culture with p210-loaded DCs [5]: significantly increased CD8^+CD25^+ T cells
- athero-reduction by dose (pilot experiment) [6]: optimum athero-reduction
